Holding throughout (assay type): cell-based
The target in one assay is T1, Bcl-xL (Homo sapiens, UniProt Q07817).
T1 construct: Measured levels of Bcl-xL protein of HCT116 cells treated with the tested compounds; host or cells: HCT116
The assay can be described thus: HCT116 Bcl-xL degradation, capillary-based immunoassay (WES). To be noted: HCT116, 24 h, 9-point serial dilution. In a few lines:
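HCT116 cells treated 24 h with compound at 10/100 nM and/or 9-point dilution (quadruplicates), then lysed. Bcl-xL measured by capillary WES immunoassay, normalized to cofilin and expressed as % of untreated cells. DC50 from four-parameter curve fit.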

Another assay relates to MOLT-4 cells. The assay can be described thus: MOLT-4 cell viability, CTG assay. The following applies: Homo sapiens, MOLT-4, 48 h. The essentials:
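Cells grown in RPMI 1640 with 10% FBS at 37° C, 5% CO2, then exposed to compounds for 48 h (11-point 5-fold dilution, triplicates). ATP measured by CellTiter-Glo luminescence; IC50 from four-parameter fit versus control, mean of ≥2 independent experiments.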

The test system of assay [1] is EBC-1 lung cancer cell line. The assay can be described thus: EBC-1 cell proliferation, CellTiter-Glo assay. To be noted: Homo sapiens, 120 h; Ebc-1 cell viability, CTG assay, 5 days of treatment; read-out: CTG 5 day Ebc1 GI50. The essentials:
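EBC-1 cells seeded at 1000 per well overnight, then exposed to 10-point dilutions (0.508 nM–10 μM final) for 5 days at 37 °C, in triplicate. ATP luminescence by CellTiter-Glo, normalised to untreated wells; GI50 from four-parameter logistic fit, runs valid only with at least one doubling.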
In general terms: ATP-based viability assays read luminescence as a measure of living cells.

The next assay addresses T2, HiBiT-tagged BCL-xL (Homo sapiens, UniProt Q07817).
T2 construct: expressed in transfected cells; host or cells: NCI-H1650 (ATCC No. CRL-5883), engineered HiBiT cell line
The experiment in a line: NCI-H1650 BCL-xL protein levels, Nano-Glo HiBiT Lytic Detection. To be noted: NCI-H1650 expressing HiBiT-tagged BCL-xL, overnight incubation, read-out: Bcl-xl HIBIT NCIH1650 DC50. The essentials: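 NCI-H1650 cells expressing HiBiT-tagged BCL-xL (5000/well) were treated overnight at 37° C with 10 concentrations, final 0.508 nM-10 μM, in triplicate. Remaining BCL-xL measured by Nano-Glo HiBiT lytic luminescence, normalized to untreated cells; 50% values by four-parameter logistic fit.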

This is an account of results in patent US20240376094A2, “SELECTIVE BCL-XL PROTAC COMPOUNDS AND METHODS OF USE” (Les Laboratoires Servier, priority 2021, published 2024).

T1 sequence (Q07817 whole entry): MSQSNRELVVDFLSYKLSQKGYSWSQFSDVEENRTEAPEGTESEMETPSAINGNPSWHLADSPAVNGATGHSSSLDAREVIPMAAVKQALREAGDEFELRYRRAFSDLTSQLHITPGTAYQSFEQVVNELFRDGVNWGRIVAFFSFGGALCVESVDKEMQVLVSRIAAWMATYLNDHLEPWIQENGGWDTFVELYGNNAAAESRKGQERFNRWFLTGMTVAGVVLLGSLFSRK
T2 sequence (Q07817 whole entry): as above

Regarding `Cc1ncsc1-c1ccc([C@H](C)NC(=O)C2C[C@@H](O)CN2C(=O)C(NC(=O)COCCOCCOCCOCCN(C)CCOC23CC4(C)CC(C)(CC(Cn5ncc(-c6ccc(N7CCCc8c7nnc(Nc7nc9ccccc9s7)c8C)nc6C(=O)O)c5C)(C4)C2)C3)C(C)(C)C)cc1` (stereo in doubt) [Example 87, 6-[3-(1,3-benzothiazol-2-ylamino)-4-methyl-6,7-dihydro-5H-pyrido[2,3-c]pyridazin-8-yl]-3-[1-[[3-[2-[2-[2-[2-[2-[2-[[(1S)-1-[(2S,4R)-4-hydroxy-2-[[(1S)-1-[4-(4-methylthiazol-5-yl)phenyl]ethyl]carbamoyl]pyrrolidine-1-carbonyl]-2,2-dimethyl-propyl]amino]-2-oxo-ethoxy]ethoxy]ethoxy]ethoxy]ethyl-methyl-amino]ethoxy]-5,7-dimethyl-1-adamantyl]methyl]-5-methyl-pyrazol-4-yl]pyridine-2-carboxylic acid], the DC50 on Bcl-xL is > 316 nM; at HiBiT-tagged BCL-xL, > 1670 nM. Further, inhibition in the assay on MOLT-4 cells was half-maximal at 34.7 nM (IC50). The concentration for 50% growth inhibition (GI50) (as a rule, the concentration giving 50% growth inhibition) in assay [1] worked out at 216 nM.

Take `Cc1ncsc1-c1ccc(CNC(=O)[C@@H]2C[C@@H](O)CN2C(=O)[C@@H](NC(=O)C2(F)CC2)C(C)(C)C)c(OCCCCCCCCCCCCCN(C)CCOC23CC4(C)CC(C)(CC(Cn5ncc(-c6ccc(N7CCCc8c7nnc(Nc7nc9ccccc9s7)c8C)nc6C(=O)O)c5C)(C4)C2)C3)c1` [Example 85, 6-[3-(1,3-benzothiazol-2-ylamino)-4-methyl-6,7-dihydro-5H-pyrido[2,3-c]pyridazin-8-yl]-3-[1-[[3-[2-[13-[2-[[[(2S,4R)-1-[(2S)-2-[(1-fluorocyclopropanecarbonyl)amino]-3,3-dimethyl-butanoyl]-4-hydroxy-pyrrolidine-2-carbonyl]amino]methyl]-5-(4-methylthiazol-5-yl)phenoxy]tridecyl-methyl-amino]ethoxy]-5,7-dimethyl-1-adamantyl]methyl]-5-methyl-pyrazol-4-yl]pyridine-2-carboxylic acid]: the figures for the DC50 at Bcl-xL and on HiBiT-tagged BCL-xL were 0.291 nM and 5 nM, respectively. Further, the IC50 (as a rule, the concentration that inhibits the measured activity by half) in the assay on MOLT-4 cells was found to be 4.17 nM. Besides, in assay [1], the GI50 was found to be 64 nM.

As to `Cc1ncsc1-c1ccc([C@H](C)NC(=O)[C@@H]2C[C@@H](O)CN2C(=O)[C@@H](NC(=O)COCCOCCOCCN(C)CCOC23CC4(C)CC(C)(CC(Cn5ncc(-c6ccc(N7CCCc8c7nnc(Nc7nc9ccccc9s7)c8C)nc6C(=O)O)c5C)(C4)C2)C3)C(C)(C)C)cc1` [Example 113, 6-[3-(1,3-benzothiazol-2-ylamino)-4-methyl-6,7-dihydro-5H-pyrido[2,3-c]pyridazin-8-yl]-3-[1-[[3-[2-[2-[2-[2-[2-[[(1S)-1-[(2S,4R)-4-hydroxy-2-[[(1S)-1-[4-(4-methylthiazol-5-yl)phenyl]ethyl]carbamoyl]pyrrolidine-1-carbonyl]-2,2-dimethyl-propyl]amino]-2-oxo-ethoxy]ethoxy]ethoxy]ethyl-methyl-amino]ethoxy]-5,7-dimethyl-1-adamantyl]methyl]-5-methyl-pyrazol-4-yl]pyridine-2-carboxylic acid], the figures for the DC50 at Bcl-xL and at HiBiT-tagged BCL-xL were > 316 nM and > 1670 nM, respectively. This molecule gave a half-maximal inhibitory concentration (IC50) in the assay on MOLT-4 cells of 20.6 nM. The GI50 in assay [1] worked out at 49 nM.

For the molecule `Cc1ncsc1-c1ccc([C@H](C)NC(=O)[C@@H]2C[C@@H](O)CN2C(=O)[C@@H](NC(=O)CCCCCCCCCCNC(=O)c2nc(N3CCCc4c3nnc(Nc3nc5ccccc5s3)c4C)ccc2-c2cnn(CC34CC5(C)CC(C)(C3)CC(OCCN3CCCC3)(C5)C4)c2C)C(C)(C)C)cc1` [Example 125, 6-[3-(1,3-benzothiazol-2-ylamino)-4-methyl-6,7-dihydro-5H-pyrido[2,3-c]pyridazin-8-yl]-3-[1-[[3,5-dimethyl-7-(2-pyrrolidin-1-ylethoxy)-1-adamantyl]methyl]-5-methyl-pyrazol-4-yl]-N-[11-[[(1S)-1-[(2S,4R)-4-hydroxy-2-[[(1S)-1-[4-(4-methylthiazol-5-yl)phenyl]ethyl]carbamoyl]pyrrolidine-1-carbonyl]-2,2-dimethyl-propyl]amino]-11-oxo-undecyl]pyridine-2-carboxamide], the DC50 at Bcl-xL was 0.487 nM; at HiBiT-tagged BCL-xL, 1 nM. In the assay on MOLT-4 cells, this molecule registered a concentration for half-maximal inhibition (IC50) of 9.34 nM. Also, the 50% growth inhibitory concentration (GI50) in assay [1] was determined as 81 nM.

As for `Cc1ncsc1-c1ccc(CNC(=O)[C@@H]2C[C@@H](O)CN2C(=O)[C@@H](NC(=O)C2(F)CC2)C(C)(C)SCCCCCCCCCCCCCN(C)CCOC23CC4(C)CC(C)(CC(Cn5ncc(-c6ccc(N7CCCc8c7nnc(Nc7nc9ccccc9s7)c8C)nc6C(=O)O)c5C)(C4)C2)C3)cc1` [Example 118, 6-[3-(1,3-benzothiazol-2-ylamino)-4-methyl-6,7-dihydro-5H-pyrido[2,3-c]pyridazin-8-yl]-3-[1-[[3-[2-[13-[(2R)-2-[(1-fluorocyclopropanecarbonyl)amino]-3-[(2S,4R)-4-hydroxy-2-[[4-(4-methylthiazol-5-yl)phenyl]methylcarbamoyl]pyrrolidin-1-yl]-1,1-dimethyl-3-oxo-propyl]sulfanyltridecyl-methyl-amino]ethoxy]-5,7-dimethyl-1-adamantyl]methyl]-5-methyl-pyrazol-4-yl]pyridine-2-carboxylic acid], the DC50 was > 316 nM on Bcl-xL and > 1670 nM at HiBiT-tagged BCL-xL. This molecule also had a 50% inhibitory concentration (IC50) in the assay with MOLT-4 cells of 7.83 nM. The concentration for 50% growth inhibition (GI50) in assay [1] stood at 84 nM.

As for `Cc1ncsc1-c1ccc([C@H](C)NC(=O)[C@@H]2C[C@@H](O)CN2C(=O)[C@@H](NC(=O)CCOCCOCCOCCOCCN(C)CCOC23CC4(C)CC(C)(CC(Cn5ncc(-c6ccc(N7CCCc8c7nnc(Nc7nc9ccccc9s7)c8C)nc6C(=O)O)c5C)(C4)C2)C3)C(C)(C)C)cc1` [Example 89, 6-[3-(1,3-benzothiazol-2-ylamino)-4-methyl-6,7-dihydro-5H-pyrido[2,3-c]pyridazin-8-yl]-3-[1-[[3-[2-[2-[2-[2-[2-[3-[[(1S)-1-[(2S,4R)-4-hydroxy-2-[[(1S)-1-[4-(4-methylthiazol-5-yl)phenyl]ethyl]carbamoyl]pyrrolidine-1-carbonyl]-2,2-dimethyl-propyl]amino]-3-oxo-propoxy]ethoxy]ethoxy]ethoxy]ethyl-methyl-amino]ethoxy]-5,7-dimethyl-1-adamantyl]methyl]-5-methyl-pyrazol-4-yl]pyridine-2-carboxylic acid], the figures for the DC50 at Bcl-xL and at HiBiT-tagged BCL-xL were > 316 nM and 13 nM, respectively. In addition, in the assay on MOLT-4 cells, inhibition was half-maximal at 57.6 nM (IC50). The GI50 in assay [1] came out at 435 nM.

With `Cc1cc(N(CCCCN(C)C(=O)CCCCCCCCCOc2cccc3c2C(=O)N(C2CCC(=O)NC2=O)C3=O)c2ccc(-c3cnn(CC45CC6(C)CC(C)(C4)CC(OCCN(C)C)(C6)C5)c3C)c(C(=O)O)n2)nnc1Nc1nc2ccccc2s1` (centres unmarked) [Example 95, 6-[[6-(1,3-benzothiazol-2-ylamino)-5-methyl-pyridazin-3-yl]-[4-[10-[2-(2,6-dioxo-3-piperidyl)-1,3-dioxo-isoindolin-4-yl]oxydecanoyl-methyl-amino]butyl]amino]-3-[1-[[3-[2-(dimethylamino)ethoxy]-5,7-dimethyl-1-adamantyl]methyl]-5-methyl-pyrazol-4-yl]pyridine-2-carboxylic acid], the DC50 is 2.85 nM at Bcl-xL and > 1670 nM on HiBiT-tagged BCL-xL. In the assay with MOLT-4 cells, the half-maximal inhibitory concentration (IC50) is 5.77 nM. In addition, the 50% growth inhibitory concentration (GI50) in assay [1] stood at 2660 nM.

Take `Cc1ncsc1-c1ccc(CNC(=O)[C@@H]2C[C@@H](O)CN2C(=O)[C@@H](NC(=O)C2(F)CC2)C(C)(C)C)c(OCCCCCCCCCCCN(C)CCOC23CC4(C)CC(C)(CC(Cn5ncc(-c6ccc(N7CCCc8c7nnc(Nc7nc9ccccc9s7)c8C)nc6C(=O)O)c5C)(C4)C2)C3)c1` [Example 76, 6-[3-(1,3-benzothiazol-2-ylamino)-4-methyl-6,7-dihydro-5H-pyrido[2,3-c]pyridazin-8-yl]-3-[1-[[3-[2-[11-[2-[[[(2S,4R)-1-[(2S)-2-[(1-fluorocyclopropanecarbonyl)amino]-3,3-dimethyl-butanoyl]-4-hydroxy-pyrrolidine-2-carbonyl]amino]methyl]-5-(4-methylthiazol-5-yl)phenoxy]undecyl-methyl-amino]ethoxy]-5,7-dimethyl-1-adamantyl]methyl]-5-methyl-pyrazol-4-yl]pyridine-2-carboxylic acid]: the DC50 at Bcl-xL was determined as 0.28 nM; on HiBiT-tagged BCL-xL, 3 nM. The molecule further gave an IC50 with MOLT-4 cells of 8.34 nM. Further, the GI50 in assay [1] worked out at 134 nM.
